B1: Clostridium thermosulfurogenes: xylose isomerase from donor organism Clostridium thermosulfurogenes (protein, UniProt P19148 1-439, looked up)
Xylose isomerase: MNKYFENVSKIKYEGPKSNNPYSFKFYNPEEVIDGKTMEEHLRFSIAYWHTFTADGTDQFGKATMQRPWNHYTDPMDIAKARVEAAFEFFDKINAPYFCFHDRDIAPEGDTLRETNKNLDTIVAMIKDYLKTSKTKVLWGTANLFSNPRFVHGASTSCNADVFAYSAAQVKKALEITKELGGENYVFWGGREGYETLLNTDMEFELDNFARFLHMAVDYAKEIGFEGQFLIEPKPKEPTKHQYDFDVANVLAFLRKYDLDKYFKVNIEANHATLAFHDFQHELRYARINGVLGSIDANTGDMLLGWDTDQFPTDIRMTTLAMYEVIKMGGFDKGGLNFDAKVRRASFEPEDLFLGHIAGMDAFAKGFKVAYKLVKDRVFDKFIEERYASYKDGIGADIVSGKADFRSLEKYALERSQIVNKSGRQELLESILNQYLFAE
B2: Bacillus licheniformis: xylose isomerase from donor organism Bacillus licheniformis (protein, UniProt P77832 1-448, looked up)
Xylose isomerase: MFFRNIGMIEYEGADSENPYAFKYYNPDEFVGGKTMKEHLRFAVAYWHTFDADGKDPFGDGTMFRAWNRLTHPLDKAKARAEAAFEFFEKLGVPYFCFHDVDIVDEGATLRETFTYLDQMSSFLKEMMETSHVQLLWNTANMFTHPRYVHGAATSCNADVYAYAAAKVKKGLDIAKELGAENYVFWGGREGYETLLNTDMKLELENLSSFYRMAVEYAREIGFDGQFLIEPKPKEPTKHQYDFDAATTIAFLETYGLKDHFKLNLEANHATLAGHTFEHELRVAALHDMLGSIDANQGDLLLGWDTDEFPTDLYSAVLAMYEILKAGGFKTGGINFDAKVRRPSFADEDLFHAHIAGMDTYAVGLKVASRLLEDKALDQVIEERYESYTKGIGLEIKEGRTDLKKLAAYALENDHIENQSGRQERLKATVNRYLLNALREAPAGKETH
B3: Bacillus subtilis: xylose isomerase from donor organism Bacillus subtilis (protein, UniProt P0CI80 1-445, looked up)
Xylose isomerase: MAQSHSSSINYFGSANKVVYEGKDSTNPLAFKYYNPQEVIGGKTLKEHLRFSIAYWHTFTADGTDVFGAATMQRPWDHYKGMDLAKMRVEAAFEMFEKLDAPFFAFHDRDIAPEGSTLKETNQNLDMIMGMIKDYMRNSGVKLLWNTANMFTNPRFVHGAATSCNADVFAYAAAQVKKGLETAKELGAENYVFWGGREGYETLLNTDLKFELDNLARFMHMAVDYAKEIGYTGQFLIEPKPKEPTTHQYDTDAATTIAFLKQYGLDNHFKLNLEANHATLAGHTFEHELRMARVHGLLGSVDANQGHPLLGWDTDEFPTDLYSTTLAMYEILQNGGLGSGGLNFDAKVRRSSFEPDDLIYAHIAGMDAFARGLKVAHKLIEDRVFEDVIQHRYRSFTEGIGLEIIEGRANFHTLEQYALNHKSIKNESGRQEKLKAILNQYILEV

System: engineered yeast (S. cerevisiae)
Test: Heterologous xylose isomerase expression in yeast (active yes/no)
Assay type: cell-based
Conditions: xylose isomerase of donor organism expressed in engineered yeast (S. cerevisiae)

Row | Molecule | Active? (yes/no)
1 | Actinoplanes missouriensis: xylose isomerase from donor organism Actinoplanes missouriensis | No
2 | Bacteroides thetaiotaomicron: xylose isomerase from donor organism Bacteroides thetaiotaomicron | Yes
3 | Streptomyces diastaticus subsp diastaticus: xylose isomerase from donor organism Streptomyces diastaticus subsp diastaticus | No
4 | Streptomyces rubiginosus: xylose isomerase from donor organism Streptomyces rubiginosus | No
5 | Thermus thermophilus: xylose isomerase from donor organism Thermus thermophilus | Yes
6 | B1 | No
7 | B2 | No
8 | B3 | No

Reference: US20120184020A1, “ENGINEERED MICROORGANISMS WITH ENHANCED FERMENTATION ACTIVITY” (Verdezyne, Inc., priority 2009, published 2012)
